Reference: patent EP0358494B1, “Emulsifiable concentrate of a pesticide” (priority 1988, dated 1990)
Where two headings read alike, the source gives them in different places.

Assay: Solubility of water in the cosolvent (Table 1)
Format: physicochemical
Protocol: All of the compositions were prepared by simple mechanical agitation of the ingredients together, using a Silveron (Trade Mark) high shear mixer. The nature and water solubility of the various cosolvents employed are as noted in Table 1.

[1] = the cosolvent itself (neat solvent)

With COC(C)COC(C)CO (centres unmarked) [Dipropylene glycol monomethyl ether] the “Solubility of water in solvent (H20/Solv)” value (from here on “Solubility … (H20/Solv)”) was “miscible”.

With CCOP(=S)(OCC)Oc1nc(Cl)c(Cl)cc1Cl [chlorpyrifos] the “Solubility … (H20/Solv)” value was “.0002% w/w”.

With CCSCc1ccccc1OC(=O)NC [ethiofencarb] the “Solubility … (H20/Solv)” value [1] was 0.18% w/w.

In the case of COP(=S)(OC)Oc1ccc([N+](=O)[O-])c(C)c1 [fenitrothion], the “Solubility … (H20/Solv)” value [1] is reported as 0.0014% w/w.

In the case of xylene, the “Solubility … (H20/Solv)” value is reported as 0.87% w/w.
